Where two headings read alike, the source gives them in different places.
How the values were obtained:
Human BACE1(1-460):Fc = target: T1, Human BACE1(1-460):Fc (Homo sapiens, UniProt P56817); test: BACE1 FRET Assay; type: biochemical; settings: purified recombinant huBACE1:Fc, FRET substrate based on APP; mean ± standard deviation of the mean, n=12
T1 construct: made in house; host or cells: HEK293 cells, transient transfection; purified from conditioned media by Protein A
Description: (§1) To assess selectivity of BACE1 over BACE2, the test compound is evaluated in FRET assays using specific substrates for BACE1 and BACE2 as described below. For in vitro enzymatic and cellular assays, the test compound is prepared in DMSO to make up a 10 mM stock solution. The stock solution is serially diluted in DMSO to obtain a ten-point dilution curve with final compound concentrations ranging from 10 μM to 0.05 nM in a 96-well round-bottom plate before conducting the in vitro enzymatic and whole cell assays.
(§2) Human BACE1 (accession number: AF190725) and human BACE2 (accession number: AF 204944) are cloned from total brain cDNA by RT-PCR. The nucleotide sequences corresponding to amino acid sequences #1 to 460 are inserted into the cDNA encoding human IgG1 (Fc) polypeptide (Vassar et al., Science, 286, 735-742 (1999)). […]
(§3) Conditioned media of HEK293 cells transiently transfected with huBACE1:Fc or huBACE2:Fc cDNA are collected. […] The purity of the final product is assessed by electrophoresis in 4-20% Tris-Glycine SDS-PAGE. […]
Serial dilutions of the test compound are prepared as described above. […] The RFU of the mixture at time 0 is recorded at excitation wavelength 355 nm and emission wavelength 460 nm, after brief mixing on a plate shaker. […] The RFU at the end of incubation is recorded with the same excitation and emission settings used at time 0. […]

[1] = target: T2, BACE1 activity in SH-SY5YAPP695Wt cells (Homo sapiens, UniProt P56817); test: SH-SY5YAPP695Wt Whole Cell Assay (Abeta ELISA); type: cell-based; settings: 24 hours incubation, conditioned media, n=4
T2 construct: endogenous in cells; host or cells: SH-SY5Y (ATCC CRL2266) stably expressing human APP695Wt
Description: as §1
The routine whole cell assay for the measurement of inhibition of BACE1 activity utilizes the human neuroblastoma cell line SH-SY5Y (ATCC Accession No. CRL2266) stably expressing a human APP695Wt cDNA. Cells are routinely used up to passage number 6 and then discarded.
SH-SY5YAPP695Wt cells are plated in 96 well tissue culture plates at 5.0×10^4 cells/well in 200 μL culture media (50% MEM/EBSS and Ham's F12, 1× each sodium pyruvate, non-essential amino acids and NaHCO3 containing 10% FBS). The following day, media is removed from the cells, fresh media added then incubated at 37° C. for 24 hours in the presence/absence of test compound at the desired concentration range.
At the end of the incubation, conditioned media are analyzed for evidence of beta-secretase activity by analysis of Abeta peptides 1-40 and 1-42 by specific sandwich ELISAs. […]

human BACE2 (1-460):Fc = target: T3, human BACE2 (1-460):Fc (Homo sapiens, UniProt Q9Y5Z0); test: BACE2 TMEM27 FRET Assay; type: biochemical
T3 construct: made in house; host or cells: HEK293 cells, transient transfection; purified from conditioned media by Protein A
T3 sequence (Q9Y5Z0 21-460): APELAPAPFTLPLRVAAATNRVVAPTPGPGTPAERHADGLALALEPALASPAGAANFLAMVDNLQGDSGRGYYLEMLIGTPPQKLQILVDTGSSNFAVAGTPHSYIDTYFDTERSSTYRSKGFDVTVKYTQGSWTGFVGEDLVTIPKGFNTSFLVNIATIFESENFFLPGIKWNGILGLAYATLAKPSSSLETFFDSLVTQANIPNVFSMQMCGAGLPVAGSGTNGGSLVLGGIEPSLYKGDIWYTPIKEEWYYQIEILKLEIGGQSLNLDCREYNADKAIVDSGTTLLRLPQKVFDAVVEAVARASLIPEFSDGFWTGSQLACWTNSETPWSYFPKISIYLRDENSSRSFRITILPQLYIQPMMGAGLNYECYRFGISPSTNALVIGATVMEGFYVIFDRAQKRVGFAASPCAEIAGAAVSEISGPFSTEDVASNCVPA
Description: as §1, §2, §3
Serial dilutions of test compound are prepared as described above. […] The RFU of the mixture at time 0 is recorded at excitation wavelength 430 nm and emission wavelength 535 nm. […] The RFU at the end of incubation is recorded with the same excitation and emission settings used at time 0. […]

beta-secretase = test: In vivo inhibition of beta-secretase, cannulated beagle dog model (Abeta 1-x ELISA); settings: male beagle dogs, 1.0 mg/kg p.o.
Description: (§4) Several animal models, including mouse, guinea pig, dog, and monkey, may be used to screen for inhibition of beta-secretase activity in vivo following compound treatment. Herein, we conduct central pharmacology studies in a cannulated beagle dog model. In this model, a cohort of male beagle dogs are implanted with a cannula in the lumbar spine region and threaded up towards the cervical spine. This model allows multiple CSF collections throughout a single 48-72 hour study period through a subcutaneous lumbar port attached to the spinal catheter. As long as the cannula remains patent, additional CSF pharmacology studies can be conducted within the same cohort of dogs. Blood samples are processed to obtain plasma, and then plasma and CSF samples are aliquoted to allow determination of test compound and Abeta CSF concentrations.
In this study, six male beagle dogs are dosed p.o. with 1.0 mg/kg Example 1 in a 0.5 M, phosphate buffer (pH=2.0) formulation and blood (0.5, 1, 2, 3, 6, 9, 12, 24, and 48 hours) and CSF (3, 6, 9, 24, and 48 hours) are collected. Plasma and CSF compound concentrations are determined by LC/MS/MS methods. Plasma and CSF are also analyzed for Abeta 1-x. “Abeta 1-x” as used herein refers to the sum of Abeta species that begin with residue 1 and end with a C-terminus greater than residue 28. This detects the majority of Abeta species and is often called “total Abeta”. Total Abeta peptides (Abeta 1-x) levels are measured by a sandwich ELISA, using monoclonal 266 as a capture antibody and biotinylated 3D6 as reporting antibody. (See May, et al., Journal of Neuroscience, 31, 16507-16516 (2011)).

[2] = Plasma and CSF compound exposure in cannulated beagle dogs (LC/MS/MS); type: in vivo; settings: dog, po, male beagle dogs, 1.0 mg/kg p.o.
Description: as §4
In this study, six male beagle dogs are dosed p.o. with 1.0 mg/kg Example 1 in a 0.5 M, phosphate buffer (pH=2.0) formulation and blood (0.5, 1, 2, 3, 6, 9, 12, 24, and 48 hours) and CSF (3, 6, 9, 24, and 48 hours) are collected. Plasma and CSF compound concentrations are determined by LC/MS/MS methods. Plasma and CSF are also analyzed for Abeta 1-x. […] Total Abeta peptides (Abeta 1-x) levels are measured by a sandwich ELISA, using monoclonal 266 as a capture antibody and biotinylated 3D6 as reporting antibody. […]

T2 sequence (P56817 46-501): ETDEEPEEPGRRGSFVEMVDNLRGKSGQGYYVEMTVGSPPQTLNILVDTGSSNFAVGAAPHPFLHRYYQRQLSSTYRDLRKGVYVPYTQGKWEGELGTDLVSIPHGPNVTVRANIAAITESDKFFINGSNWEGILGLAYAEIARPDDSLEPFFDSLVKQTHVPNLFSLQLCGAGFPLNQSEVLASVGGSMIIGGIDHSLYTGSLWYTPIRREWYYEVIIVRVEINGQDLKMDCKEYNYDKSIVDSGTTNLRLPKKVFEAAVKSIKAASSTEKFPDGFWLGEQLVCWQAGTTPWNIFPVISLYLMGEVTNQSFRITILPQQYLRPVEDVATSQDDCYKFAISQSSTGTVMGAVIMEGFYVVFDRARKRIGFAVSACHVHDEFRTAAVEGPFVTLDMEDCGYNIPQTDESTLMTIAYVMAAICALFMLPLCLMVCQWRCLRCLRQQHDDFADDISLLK
T1 sequence (P56817 22-460): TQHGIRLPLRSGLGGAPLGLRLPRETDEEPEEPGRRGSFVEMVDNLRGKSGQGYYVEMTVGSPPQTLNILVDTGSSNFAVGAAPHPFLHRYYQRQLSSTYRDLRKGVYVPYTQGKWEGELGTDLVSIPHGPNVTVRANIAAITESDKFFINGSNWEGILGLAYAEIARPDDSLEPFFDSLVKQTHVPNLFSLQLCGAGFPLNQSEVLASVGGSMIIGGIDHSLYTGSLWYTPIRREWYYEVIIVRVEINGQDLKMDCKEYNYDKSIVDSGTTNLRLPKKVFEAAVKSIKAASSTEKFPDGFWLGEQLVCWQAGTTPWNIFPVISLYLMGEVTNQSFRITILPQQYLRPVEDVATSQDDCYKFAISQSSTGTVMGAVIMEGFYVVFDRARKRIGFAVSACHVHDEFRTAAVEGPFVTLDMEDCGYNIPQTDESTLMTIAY

IC50 (Human BACE1(1-460):Fc): 11.9 nM
IC50 ([1]; read-out: IC50 for SH-SY5YAPP695Wt A-beta (1-40) ELISA): 1.03 nM
IC50 ([1]; read-out: IC50 for SH-SY5YAPP695Wt A-beta (1-42) ELISA): 1.28 nM
IC50 (human BACE2 (1-460):Fc; huBACE2:Fc, TMEM27 LucY FRET substrate, mean ± standard deviation of the mean, n=6): 602 nM
BACE1 selectivity over BACE2 (BACE2 IC50 / BACE1 IC50) (human BACE2 (1-460):Fc; selectivity for BACE1 over BACE2): approximately 50 fold
Kp ([2]; CSF / free plasma, free fraction by equilibrium dialysis, read-out: ratio of CSF AUC to free plasma AUC): 0.17
AUC ([2]; plasma, read-out: total plasma AUC exposure): 7.96 µM·h
Compound: CC(F)(F)[C@H]1OC[C@]2(c3cc(NC(=O)c4ccc(C(F)(F)F)cn4)ccc3F)N=C(N)OC[C@H]12 [Example 1, N-[3-[(4aR,5S,7aS)-2-Amino-5-(1,1-difluoroethyl)-4,4a,5,7-tetrahydrofuro[3,4-d][1,3]oxazin-7a-yl]-4-fluoro-phenyl]-5-(trifluoromethyl)pyridine-2-carboxamide]
reduction of CSF Abeta 1-x levels relative to baseline (beta-secretase; 24 hours): approximately 65%
reduction in plasma levels of Abeta 1-x at nadir (beta-secretase; 48 hour post-dosing period): up to 80%
reduction of CSF Abeta 1-x levels relative to baseline (beta-secretase; 48 hours): ~55%

Source: patent publication US20190106434A1, “N-[3-[2-AMINO-5-(1,1-DIFLUOROETHYL)-4,4A,5,7-TETRAHYDROFURO[3,4-D][1,3]OXAZIN-7A-YL]-4-FLUORO-PHENYL-5-(TRIFLUOROMETHYL)PYRIDINE-2-CARBOXAMIDE AND ITS (4AR,5S,7AS) ISOMER AS A SELECTIVE BACE1 INHIBITOR FOR TREATING E.G. ALZHEIMER'S DISEASE” (Eli Lilly and Company, priority 2016, published 2019)
